One may read the MIC as the smallest concentration in the dilution series that meets the test's criterion for growth inhibition.

In brackets after ≈: the same amount, converted by molar mass.

MIC data for eleven compounds are collected here from patent publication US3966719A, “4-(Tetrazol-5-yl)-Δ^3 -cephem compounds” (Pfizer Inc., priority 1974, dated 1976).

The test system of the experiment is Streptomyces pyogenes. In words: antimicrobial test in nutrient broth, minimum concentration (MIC) at which growth failed to occur. The conditions noted are these: standardized conditions, read-out: In vitro MIC. It is filed as cell-based.
Consider `CC1=C(c2nn[nH]n2)N2C(=O)C(NC(=O)Cc3cccs3)C2SC1` (centres unmarked) [R1 not printed, A = H], for which the MIC was found to be 0.4 µg/mL (≈ 1.1 µM). In the case of `CC1=C(c2nn[nH]n2)N2C(=O)C(NC(=O)Cn3cnnn3)C2SC1` (centres unmarked) it was 6.2 µg/mL (≈ 17.8 µM); in that of `CC1=C(c2nn[nH]n2)N2C(=O)C(NC(=O)C(N=[N+]=[N-])c3ccccc3)C2SC1` (centres unmarked) [C6H5CH(N3)--, A = H], 1.5 µg/mL (≈ 3.77 µM). In the case of `CC1=C(c2nn[nH]n2)N2C(=O)C(NC(=O)[C@H](N)c3ccc(O)cc3)C2SC1` (stereo partly drawn) [D--4-HOC6H4CH(NH2)--, A = H, 7-[D-α-Amino-α-(p-hydroxyphenyl)acetamido]-3-methyl-4-(tetrazol-5-yl)-Δ^3-cephem] it was 1.5 µg/mL (≈ 3.87 µM).

Take `CC1=C(c2nn[nH]n2)N2C(=O)C(NC(=O)[C@H](O)c3ccccc3)C2SC1` (stereo partly drawn) [D--C6H5CH(OH)--, A = H, 7-(D-α-Hydroxyphenylacetamido)-3-methyl-4-(tetrazol-5-yl)-Δ^3-cephem]: the minimum inhibitory concentration (MIC) is 1.5 µg/mL (≈ 4.03 µM).

On to `Cn1nnnc1SCC1=C(c2nn[nH]n2)N2C(=O)C(NC(=O)Cc3cccs3)C2SC1` (centres unmarked), for which the MIC is 0.1 µg/mL (≈ 0.21 µM). To `CC(=O)OCC1=C(c2nn[nH]n2)N2C(=O)C(NC(=O)Cc3cccs3)C2SC1` (centres unmarked) [R1 not printed, A = OCOCH3] belongs 1.6 µg/mL (≈ 3.81 µM); to `CC1=C(c2nn[nH]n2)N2C(=O)C(NC(=O)CSc3nnc(C)s3)C2SC1` (centres unmarked) [R1 not printed, A = H], 0.78 µg/mL (≈ 1.9 µM); to `Cn1nnnc1SCC1=C(c2nn[nH]n2)N2C(=O)C(NC(=O)[C@H](O)c3ccccc3)C2SC1` (stereo partly drawn) [7-D-(α-Hydroxy-α-phenylacetamido)-3-(1-methyltetrazol-5-ylthiomethyl)-4-(tetrazol-5-yl)-Δ^3-cephem], 3.12 µg/mL (≈ 6.41 µM). To `CC1=C(c2nn[nH]n2)N2C(=O)C(NC(=O)COc3ccccc3)C2SC1` (centres unmarked) [C6H5OCH2--, A = H, 7-Phenoxyacetamido-3-methyl-4-(tetrazol-5-yl)-Δ^3-cephem] belongs 3.1 µg/mL (≈ 8.32 µM); to `CC1=C(c2nn[nH]n2)N2C(=O)C(NC(=O)Cc3ccccc3)C2SC1` (centres unmarked) [C6H5CH2--, A = H, 7-Phenylacetamido-3-methyl-4-(tetrazol-5-yl)-Δ^3-cephem], 0.78 µg/mL (≈ 2.19 µM).
